Literature values in patent publication US20240082160A1, “AMLODIPINE DRY SUSPENSION AND PREPARATION METHOD THEREFOR” (GUANGZHOU APICHOPE PHARMACEUTICAL CO., LTD., priority 2021, published 2024).

- solubility in water: slightly soluble in water
Structure (SMILES): CCOC(=O)C1=C(COCCN)NC(C)=C(C(=O)OC)C1c1ccccc1Cl (stereo not shown) [amlodipine besylate]
